Experimental data taken from ChEMBL document CHEMBL5143555, “Potentiating the intracellular killing of Staphylococcus aureus by dihydroquinazoline analogues as NorA efflux pump inhibitor” (Bioorg Med Chem, 2022).
In brackets after ≈: the same amount, converted by molar mass. Activity calls are given as the source filed them. The rule behind the calls is not given here.

Experiments:
Staphylococcus aureus [1] = experiment: Antibacterial activity against Staphylococcus aureus 1199 measured after 24 hrs by Muller Hinton broth based MTT assay; assay type: functional
[2] = Cytotoxicity against kidney epithelial cells (unknown origin) assessed as cell viability at 50 ug/mL measured after 24 hrs by alamar blue assay relative to control; assay type: toxicity, cell-based, Fetal kidney cell; conditions: at 50 µg/mL, read-out: Activity
[3] = molecular target: T1, Quinolone resistance protein NorA (Staphylococcus aureus) (UniProt P0A0J7); experiment: Inhibition of NorA in Staphylococcus aureus 1199B assessed as potentiation of norfloxacin-induced antibacterial activity by measuring Norfloxacin MIC at sub MIC relative to norfloxacin MIC alone
T1 sequence (whole entry): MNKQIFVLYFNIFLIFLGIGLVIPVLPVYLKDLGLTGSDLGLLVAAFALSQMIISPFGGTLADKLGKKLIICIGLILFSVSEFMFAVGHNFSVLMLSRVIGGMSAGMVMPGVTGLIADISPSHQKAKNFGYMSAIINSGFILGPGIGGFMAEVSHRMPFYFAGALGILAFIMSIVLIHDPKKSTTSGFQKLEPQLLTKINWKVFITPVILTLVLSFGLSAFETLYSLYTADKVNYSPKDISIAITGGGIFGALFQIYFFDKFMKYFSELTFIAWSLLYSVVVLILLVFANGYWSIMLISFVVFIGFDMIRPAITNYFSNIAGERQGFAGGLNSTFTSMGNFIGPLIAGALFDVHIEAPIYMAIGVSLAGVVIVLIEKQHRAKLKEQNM

[4] = molecular target: T1, Quinolone resistance protein NorA (Staphylococcus aureus); experiment: Inhibition of NorA in Staphylococcus aureus 1199B assessed as potentiation of ethidium bromide-induced antibacterial activity by measuring fractional inhibitory concentration
[5] = molecular target: T1, Quinolone resistance protein NorA (Staphylococcus aureus); experiment: Inhibition of NorA in Staphylococcus aureus 1199B assessed as potentiation of 3.1 ug/mL norfloxacin-induced bactericidal activity by measuring log reduction in bacterial count at 7.8 ug/mL measured after 24 hrs by time-kill kinetics assay; conditions: dose 7.8 µg/ml
[6] = molecular target: T1, Quinolone resistance protein NorA (Staphylococcus aureus); experiment: Inhibition of NorA in Staphylococcus aureus 1199B assessed as potentiation of ethidium bromide-induced antibacterial activity by measuring ethidium bromide MIC at sub MIC relative to ethidium bromide MIC alone
Staphylococcus aureus [7] = experiment: Antibacterial activity against Staphylococcus aureus K1758 measured after 24 hrs by Muller Hinton broth based MTT assay; assay type: functional
[8] = molecular target: T1, Quinolone resistance protein NorA (Staphylococcus aureus); experiment: Inhibition of NorA in Staphylococcus aureus 1199B assessed as potentiation of norfloxacin-induced antibacterial activity by measuring fractional inhibitory concentration
Staphylococcus aureus [9] = experiment: Antibacterial activity against Staphylococcus aureus 1199B measured after 24 hrs by Muller Hinton broth based MTT assay; assay type: functional
[10] = molecular target: T1, Quinolone resistance protein NorA (Staphylococcus aureus); experiment: Inhibition of NorA in Staphylococcus aureus 1199B assessed as accumulation of ethidium bromide at 3.9 ug/ml by measuring fluorescence intensity measured at 5 mins interval for 40 mins by fluorescence spectrophotometry; conditions: dose 3.9 µg/ml
[11] = molecular target: T1, Quinolone resistance protein NorA (Staphylococcus aureus); experiment: Inhibition of NorA in Staphylococcus aureus 1199B assessed as accumulation of norfloxacin at 3.9 ug/ml measured at 5 mins interval for 40 mins by fluorescence spectrophotometry; conditions: dose 3.9 µg/ml
[12] = molecular target: T1, Quinolone resistance protein NorA (Staphylococcus aureus); experiment: Inhibition of NorA in Staphylococcus aureus 1199B assessed as potentiation of ethidium bromide-induced antibacterial activity by measuring ethidium bromide MIC at sub MIC
[13] = molecular target: T1, Quinolone resistance protein NorA (Staphylococcus aureus); experiment: Inhibition of NorA in Staphylococcus aureus 1199B assessed as potentiation of ethidium bromide-induced bactericidal activity at 7.8 ug/ml measured after 24 hrs by time-kill kinetics assay; conditions: dose 7.8 µg/ml
[14] = molecular target: T1, Quinolone resistance protein NorA (Staphylococcus aureus); experiment: Inhibition of NorA in Staphylococcus aureus 1199B assessed as potentiation of norfloxacin-induced antibacterial activity by measuring Norfloxacin MIC at sub MIC
[15] = molecular target: T1, Quinolone resistance protein NorA (Staphylococcus aureus); experiment: Inhibition of NorA in Staphylococcus aureus 1199B assessed as accumulation of ethidium bromide at 50 ug/ml by measuring fluorescence intensity measured at 5 mins interval for 40 mins by fluorescence spectrophotometry; conditions: dose 50.0 µg/ml
[16] = molecular target: T1, Quinolone resistance protein NorA (Staphylococcus aureus); experiment: Inhibition of NorA in Staphylococcus aureus 1199B assessed as accumulation of norfloxacin at 50 ug/ml by measuring fluorescence intensity measured at 5 mins interval for 40 mins by fluorescence spectrophotometry; conditions: dose 50.0 µg/ml
Staphylococcus aureus [17] = experiment: Up regulation of NorA gene expression in Staphylococcus aureus 1199B at 1.55 ug/ml measured after 2 hrs by qRT-PCR analysis relative to control; assay type: functional; conditions: dose 1.55 µg/ml
Staphylococcus aureus [18] = experiment: Bactericidal activity against Staphylococcus aureus 1199B assessed as bacterial count at 3.1 ug/mL measured after 24 hrs by time-kill kinetics assay; assay type: functional; conditions: dose 3.1 µg/ml
Staphylococcus aureus [19] = experiment: Bactericidal activity against Staphylococcus aureus 1199B at 50 ug/mL by time-kill kinetics assay; assay type: functional, organism-based; conditions: dose 50.0 µg/ml
[20] = molecular target: T1, Quinolone resistance protein NorA (Staphylococcus aureus); experiment: Inhibition of NorA in Staphylococcus aureus 1199B assessed as potentiation of 3.1 ug/mL ethidium bromide-induced bactericidal activity by measuring log reduction in bacterial count at sub MIC measured within 4 hrs by time-kill kinetics assay
Staphylococcus aureus [21] = experiment: Down regulation of NorA gene expression in Staphylococcus aureus 1199B at 1.55 ug/ml measured after 2 hrs in presence of norfloxacin by qRT-PCR analysis relative to norfloxacin; assay type: functional; conditions: dose 1.55 µg/ml
[22] = molecular target: T1, Quinolone resistance protein NorA (Staphylococcus aureus); experiment: Inhibition of NorA in Staphylococcus aureus 1199B infected human THP-1 cells assessed as potentiation of norfloxacin-induced bactericidal activity by measuring log reduction in bacterial count measured after 24 hrs relative to vancomycin; assay type: cell-based
[23] = molecular target: T1, Quinolone resistance protein NorA (Staphylococcus aureus); experiment: Inhibition of NorA in Staphylococcus aureus 1199B infected human THP-1 cells assessed as potentiation of norfloxacin-induced bactericidal activity by measuring reduction in intracellular proliferation at modulatory concentration measured after 24 hrs; assay type: cell-based
Staphylococcus aureus [24] = experiment: Down regulation of NorA gene expression in Staphylococcus aureus 1199B at 1.55 ug/ml measured after 2 hrs by qRT-PCR analysis relative to control; assay type: functional; conditions: dose 1.55 µg/ml
Staphylococcus aureus [25] = experiment: Down regulation of NorA gene expression in Staphylococcus aureus 1199B at 3.9 ug/ml measured after 2 hrs by qRT-PCR analysis; assay type: functional; conditions: dose 3.9 µg/ml
[26] = molecular target: T1, Quinolone resistance protein NorA (Staphylococcus aureus); experiment: Inhibition of NorA in Staphylococcus aureus 1199B assessed as potentiation of 3.1 ug/mL norfloxacin-induced bactericidal activity by measuring log reduction in bacterial count at 7.8 ug/mL measured after 4 hrs by time-kill kinetics assay; conditions: dose 7.8 µg/ml
[27] = molecular target: T1, Quinolone resistance protein NorA (Staphylococcus aureus); experiment: Inhibition of NorA in Staphylococcus aureus 1199B assessed as potentiation of norfloxacin-induced morphological changes by measuring appearance of lysed cell at sub MIC by field emission scanning electron microscopy
[28] = molecular target: T1, Quinolone resistance protein NorA (Staphylococcus aureus); experiment: Inhibition of NorA in Staphylococcus aureus 1199B infected human THP-1 cells assessed as potentiation of norfloxacin-induced bactericidal activity by measuring reduction in bacterial count at modulatory concentration measured after 24 hrs; assay type: cell-based
[29] = molecular target: T1, Quinolone resistance protein NorA (Staphylococcus aureus); experiment: Inhibition of NorA in Staphylococcus aureus 1199B assessed as accumulation of norfloxacin at 3.9 ug/ml by measuring fluorescence intensity measured at 5 mins interval for 40 mins by fluorescence spectrophotometry; conditions: dose 3.9 µg/ml
[30] = molecular target: T1, Quinolone resistance protein NorA (Staphylococcus aureus); experiment: Inhibition of NorA in Staphylococcus aureus 1199B infected human THP-1 cells assessed as potentiation of 3.1 ug/ml norfloxacin-induced bactericidal activity by measuring log reduction in bacterial count at 15.6 ug/ml measured after 24 hrs relative to control; assay type: cell-based; conditions: dose 15.6 µg/ml
[31] = molecular target: T1, Quinolone resistance protein NorA (Staphylococcus aureus); experiment: Inhibition of NorA in Staphylococcus aureus 1199B infected human THP-1 cells assessed as potentiation of norfloxacin-induced bactericidal activity by measuring reduction in bacterial count at modulatory concentration measured after 24 hrs relative to control; assay type: cell-based
[32] = molecular target: T1, Quinolone resistance protein NorA (Staphylococcus aureus); experiment: Inhibition of NorA in Staphylococcus aureus 1199B infected human THP-1 cells assessed as potentiation of norfloxacin-induced bactericidal activity by measuring reduction in intracellular invasion at modulatory concentration measured after 24 hrs; assay type: cell-based

Structure (SMILES) | MIC (Staphylococcus aureus [1]) [µg/mL] | viability at 24 h, 50 ug/mL [2] [%] | fold change (FC) [3] | fractional inhibitory concentration index (FICI) [4] | fold change (FC) [6] | MIC (Staphylococcus aureus [7]) [µg/mL] | fractional inhibitory concentration index (FICI) [8] | MIC (Staphylococcus aureus [9]) [µg/mL] | Flu intensity [10] | MIC [12] [µg/mL] | MIC [14] [µg/mL] | other results
COc1ccc(C2N=C(c3ccccc3)c3ccccc3N2)cc1OC (stereo unspecified) | 125 (≈ 363 µM) | 83.7 | 16 | 0.141 | 8 | 250 (≈ 726 µM) | 0.078 | 500 (≈ 1450 µM) | 86 | 6.2 | 3.1 | Activity [5]: > 3 log10CFU/ml; inhibition [11]: Active; inhibition [13]: Active
COc1ccc(CCN(C)CCCC(C#N)(c2ccc(OC)c(OC)c2)C(C)C)cc1OC (stereo unspecified) [VERAPAMIL] |  |  | 4 |  | 8 |  |  | 400 (≈ 880 µM) |  | 6.2 | 12.5 | Flu intensity [15]: 189; Flu intensity [16]: 1590
CCn1cc(C(=O)O)c(=O)c2cc(F)c(N3CCNCC3)cc21 [NORFLOXACIN] | 1.56 (≈ 4.89 µM) |  |  |  |  | 0.2 (≈ 0.626 µM) |  | 50 (≈ 157 µM) |  |  |  | fold change (FC) (Staphylococcus aureus [17]): 0.076; Activity (Staphylococcus aureus [18]): 6 log10CFU/ml; inhibition (Staphylococcus aureus [19]): Active
Fc1ccccc1C1=NC(c2ccco2)Nc2ccc(Cl)cc21 (stereo unspecified) | 125 (≈ 383 µM) | 95.3 | 16 | 0.125 | 16 | 3.9 (≈ 11.9 µM) | 0.078 | 500 (≈ 1530 µM) | 248 | 3.1 | 3.1 | Activity [20]: > 3 log10CFU/ml; fold change (FC) (Staphylococcus aureus [21]): 9; FC [22]: 3; inhibition [23]: Active; fold change (FC) (Staphylococcus aureus [24]): 8; Activity (Staphylococcus aureus [25]): Active; Activity [26]: > 3 log10CFU/ml; inhibition [27]: Active; Activity [28]: 4.68 log10CFU/ml; Flu intensity [29]: 28700; FC [30]: 5; fold change (FC) [31]: 4; inhibition [32]: Active
